Measured values taken from US9260382B2, “Methods of reducing virulence in bacteria” (priority 2010, dated 2016).

Tests used:
rsmB RNA = assay: Northern blot analysis of rsmB RNA; assay type: cell-based, D. dadanti 3937; conditions: bacterial cells cultured in media supplemented with compound (FIG. 23)
Source text: Northern blot analysis was used to quantify rsmB RNA of D. dadanti 3937.

gacA mRNA = assay: qRT-PCR relative mRNA level of gacA; assay type: cell-based, Dickeya dadantii 3937; conditions: 0.1 mM in MM
Description: (§1) Bacterial strains were grown in MM. Total RNA from the bacterial cells was isolated by using the TRI reagent method (Sigma, Mo.) and treated with Turbo DNA-free DNase kits (Ambion, Tex.) as described (Peng et al., 2006). An iScript cDNA Synthesis Kit (Bio-Rad, CA) was used to synthesize cDNA from 0.5 μg of treated total RNA. The Real Master Mix (Eppendorf, Westbury, N.Y.) was used for qRT-PCR reaction to quantify the cDNA level of target genes in different samples. The rplU was used as the endogenous control for data analysis. qRT-PCR data were analyzed using Relative Expression Software Tool as described (Pfaffl, M. W., Horgan, G. W., and Dempfle, L. (2002) Relative expression software tool (REST) for group-wise comparison and statistical analysis of relative expression results in real-time PCR. Nucleic Acids Res 30:e36.).

hrpY mRNA = assay: qRT-PCR relative mRNA level of hrpY; assay type: cell-based, Dickeya dadantii 3937; conditions: 0.1 mM in MM
Description: as §1

hrpA promoter (T3SS) = assay: hrpA promoter activity assay in DC3000 (GFP, flow cytometry); assay type: cell-based, Pseudomonas syringae pv. tomato DC3000; conditions: DC3000 (phrpA)
Description: Expression of hrpA was analyzed using a FACS Calibur flow cytometer as previously described (BD Biosciences, CA) (Peng et al. 2006). Wild-type DC3000 carrying the promoter-probe phrpA or pPROBE-NT (vector control) was grown in KB broth overnight and transferred to HIM or HIM supplemented with different compounds as described (Li et al. 2009). The promoter activity of hrpA in DC3000 was monitored by measuring GFP intensity using flow cytometry.
To determine the maximum concentration of TCA that will inhibit hrpA promoter activity without affecting bacterial growth, DC3000 carrying phrpA was cultured in HIM and HIM supplemented with 25 μM, 50 μM, 100 μM, 250 μM, or 500 μM of TCA. Promoter activity was measured at 6 h and 9 h as mentioned above using flow cytometry. Bacterial growth was determined by withdrawing samples of each culture and spot-plating serial dilutions onto King's B agar (King et al. 1954) in tandem with promoter activity assays. Colonies were counted after 48 h of incubation at 28° C.

[1] = test system: Pseudomonas syringae pv. tomato DC3000; assay: Virulence assay in tomato plants (bacterial speck); assay type: in vivo; conditions: five days post-inoculation; for bacterial speck lesions on tomato plants, in words: DC3000 with 250 μM
Description: Virulence assays were performed in 4-5 week old tomato plants. Bacterial cell suspensions were adjusted to 6×10^5 cells/ml in dH2O with 0.02% Silwet L-77 (Lehle Seeds, Round Rock, Tex.). Lycopersicon esculentum cv. Moneymaker plants were dip-inoculated into negative control solution (dH2O with 0.02% Silwet L-77 and DMSO), positive control solution (DC3000 in dH2O with 0.02% Silwet L-77 and DMSO), or with a chemical treatment solution (DC3000 in dH2O with 0.02% Silwet L-77 and 250 μM TCA). Leaves were air-dried and plants were covered with a plastic dome and returned to the growth chamber. Plants were scored for disease symptoms using a modified scoring system (Kozik and Nowakowska 2010) five days post-inoculation. Lesions of bacterial speck on tomato were counted and the plants were scored using the following DSI scale: 0=no lesions per plant, 1=1-10 lesions, 2=11-20 lesions, 3=21-40 lesions, 4=>40 lesions.
The effects of TCA on virulence in tomato plants were examined. Lycopersicon esculentum cv. Moneymaker plants were dip-inoculated with a negative control treatment (dH2O with 0.02% Silwet L-77 and DMSO), a positive control treatment (DC3000 in dH2O with 0.02% Silwet L-77 and DMSO), or with a chemical treatment (DC3000 in dH2O with 0.02% Silwet L-77 and 250 μM TCA) as described in the methods. The lesions of bacterial speck on leaves per plant were counted and plants were classified with a disease severity index (DSI) as described in the methods. […] Plants treated with DC3000 were all scored with a DSI of four (FIG. 36B).

hrpN mRNA = assay: qRT-PCR relative mRNA level of hrpN; assay type: cell-based, Dickeya dadantii 3937; conditions: 0.1 mM in MM
Description: as §1

HrpN protein = HrpN protein expression (FIG. 15); assay type: cell-based, Dickeya dadantii 3937; conditions: MM supplemented with 0.1 mM (FIG. 15)
Source text: To further elucidate whether T3SS gene expression is mainly regulated through the HrpX/Y-HrpS-HrpL regulatory pathway, the expression of hrpA and hrpN in wild-type Ech3937 and hrpX (WPP67), hrpY (WPP92), hrpS (WPP90), and hrpL (WPP96) mutants in MM were examined. […] Similar expression of hrpA and hrpN was observed among WPP67, WPP92, WPP90 and WPP96 carrying phrpA and phrpN grown in MM and MM supplemented with PCA. […] Since PCA represses the expression of several T3SS genes such as hrpN, the effect of PCA on protein production of HrpN was further examined.

## O=C(/C=C/c1ccc(O)cc1)NO [Compound 103, trans-4-Hydroxycinnamohydroxamic acid]
rsmB RNA
  rsmB RNA level, Northern blot, in words: reduced rsmB mRNA

## O=C(O)/C=C/c1ccccc1O [Compound 006, Ortho-coumaric acid]
gacA mRNA
  gacA mRNA compared with MM alone, in words: No significant difference
hrpY mRNA
  hrpY mRNA compared with MM alone, in words: No significant difference

## O=C(O)/C=C/c1ccccc1 [Compound 001, trans-cinnamic acid]
hrpA promoter (T3SS); HIM + 25 μM or 50 μM
  effect on hrpA promoter activity, in words: less substantial effect
hrpA promoter (T3SS); HIM + 100 μM
  reduction in hrpA promoter activity: 3 fold
hrpA promoter (T3SS); HIM + 250 μM and 500 μM
  effect on hrpA promoter activity, in words: almost complete repression of hrpA promoter activity
[1]; tomato Lycopersicon esculentum cv. Moneymaker dip-inoculated with DC3000 and 250 μM
  disease severity index (DSI): zero
[1]
  bacterial speck lesions on tomato plants, in words: No lesions of bacterial speck were observed
[1]; listed as TCA
  bacterial speck lesions on tomato plants, in words: no bacterial speck lesions were observed

## O=C(O)/C=C/c1ccc(O)cc1 [Compound 004, para-coumaric acid]
hrpN mRNA
  hrpN mRNA compared with MM alone, in words: significantly lower amount of mRNA
HrpN protein
  HrpN protein amount compared with MM alone, in words: a lower amount of HrpN
